Experimental data: patent US20070232601A1, “Vla-4 Inhibitor” (priority 2004, published 2007)

How the values were obtained:
[1] = biological target: T1, hα4 and β1 integrins (VLA-4) (Homo sapiens, UniProt P05556+P13612); assay: In vitro evaluation: inhibition of binding of CHO cells expressing hα4 and β1 integrins to Eu3+-hVCAM-1 D1D7-IgG; conditions: ligand Eu3+-hVCAM-1 D1D7-IgG 2 nM, Ki calculated from IC50
T1 construct: expressed in transfected cells; host or cells: CHO cells
Summary of the method: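 CHO cells stably expressing hα4β1 were cultured 2 days, then incubated 1 h at room temperature with Eu3+-hVCAM-1 D1D7-IgG (added as 2 nM solution) and compound in HEPES pH 7.5 with Ca2+, Mg2+ and 4 mM Mn2+, ± 6% human serum albumin. Bound europium was read by time-resolved fluorescence; IC50 was converted to Ki using Scatchard-derived Kd.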

[2] = Dispersibility test in Japanese Pharmacopoeia First and Second Solution; type: physicochemical; conditions: for Dispersibility in Japanese Pharmacopoeia First Solution: JP1, pH 1.2; for Dispersibility in Japanese Pharmacopoeia Second Solution: JP2, pH 6.8
Protocol: Dispersibility of a test substance in Japanese Pharmacopoeia First Solution (JP1, pH 1.2) and Japanese Pharmacopoeia Second Solution (JP2, pH 6.8) was evaluated.

T1 sequence (P13612 34-1032): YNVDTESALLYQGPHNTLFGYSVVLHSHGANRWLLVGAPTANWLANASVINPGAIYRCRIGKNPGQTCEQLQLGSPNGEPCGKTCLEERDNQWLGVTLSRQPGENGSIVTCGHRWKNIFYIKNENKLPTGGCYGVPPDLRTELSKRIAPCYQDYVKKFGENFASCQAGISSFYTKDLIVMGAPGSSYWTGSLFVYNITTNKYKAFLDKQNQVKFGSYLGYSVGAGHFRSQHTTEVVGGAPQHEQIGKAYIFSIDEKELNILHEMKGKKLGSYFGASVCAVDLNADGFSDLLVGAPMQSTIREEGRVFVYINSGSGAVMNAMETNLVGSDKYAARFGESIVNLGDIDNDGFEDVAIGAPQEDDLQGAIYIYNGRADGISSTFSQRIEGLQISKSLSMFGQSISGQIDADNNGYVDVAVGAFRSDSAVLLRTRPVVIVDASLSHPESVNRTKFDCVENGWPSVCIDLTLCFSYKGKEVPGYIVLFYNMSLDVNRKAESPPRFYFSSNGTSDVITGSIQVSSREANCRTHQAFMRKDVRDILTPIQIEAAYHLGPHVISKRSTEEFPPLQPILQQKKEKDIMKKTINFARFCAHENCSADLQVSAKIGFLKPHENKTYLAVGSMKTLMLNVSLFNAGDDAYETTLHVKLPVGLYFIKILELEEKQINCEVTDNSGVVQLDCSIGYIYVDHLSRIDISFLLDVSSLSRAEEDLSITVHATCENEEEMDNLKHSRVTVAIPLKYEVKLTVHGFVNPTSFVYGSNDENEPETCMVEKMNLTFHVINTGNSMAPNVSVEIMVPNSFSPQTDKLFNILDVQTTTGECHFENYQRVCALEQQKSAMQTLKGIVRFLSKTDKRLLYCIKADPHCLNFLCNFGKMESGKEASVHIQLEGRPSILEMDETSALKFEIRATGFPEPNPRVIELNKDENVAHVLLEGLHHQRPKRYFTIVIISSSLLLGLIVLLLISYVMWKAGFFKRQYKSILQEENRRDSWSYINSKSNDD
T1 sequence (P05556 21-798): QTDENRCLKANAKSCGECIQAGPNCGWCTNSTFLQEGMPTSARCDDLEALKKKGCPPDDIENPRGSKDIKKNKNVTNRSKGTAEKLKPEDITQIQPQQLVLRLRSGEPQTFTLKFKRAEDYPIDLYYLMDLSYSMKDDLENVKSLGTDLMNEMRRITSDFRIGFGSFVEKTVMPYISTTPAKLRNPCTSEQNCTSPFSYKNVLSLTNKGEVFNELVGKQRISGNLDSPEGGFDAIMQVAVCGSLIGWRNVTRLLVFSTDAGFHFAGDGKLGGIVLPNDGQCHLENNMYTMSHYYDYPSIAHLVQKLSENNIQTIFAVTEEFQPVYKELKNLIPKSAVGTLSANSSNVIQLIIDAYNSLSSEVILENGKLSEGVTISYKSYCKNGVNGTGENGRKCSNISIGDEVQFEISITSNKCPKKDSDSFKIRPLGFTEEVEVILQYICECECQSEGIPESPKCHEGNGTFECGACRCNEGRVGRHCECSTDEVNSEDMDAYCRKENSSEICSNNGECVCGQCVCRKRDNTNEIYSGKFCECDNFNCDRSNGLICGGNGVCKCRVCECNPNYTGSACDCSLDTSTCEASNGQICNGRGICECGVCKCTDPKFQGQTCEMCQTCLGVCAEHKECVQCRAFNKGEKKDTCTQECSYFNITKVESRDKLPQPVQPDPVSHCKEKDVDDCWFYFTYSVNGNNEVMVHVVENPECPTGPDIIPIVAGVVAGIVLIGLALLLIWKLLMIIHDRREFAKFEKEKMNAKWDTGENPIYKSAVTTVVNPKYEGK

Row | SMILES | Ki [1] | Dispersibility in Japanese Pharmacopoeia First Solution [2] | Dispersibility in Japanese Pharmacopoeia Second Solution [2]
1 | O=C(O)CCc1cnc([C@@H]2C[C@H](N3CCC(F)(F)CC3)CN2C(=O)Cc2cc(Cl)c(NC(=O)c3csc4ccccc34)cc2F)s1 [Example 75, 3-[2-[1-[4-(3-Benzo[b]thiophenylcarbonylamino)-5-chloro-2-fluorophenylacetyl]-(4S)-[1-(4,4-difluoro)piperidinyl]-(2S)-pyrrolidinyl]-5-thiazolyl]propionic acid] | 0.47 nM | 220 µg/mL | 160 µg/mL
2 | O=C(O)CCc1cnc([C@@H]2C[C@H](N3CCC(F)(F)CC3)CN2C(=O)Cc2cc(Cl)c(NC(=O)c3coc4ccccc34)cc2F)s1 [Example 77, 3-[2-[1-[4-(3-Benzo[b]furanylcarbonylamino)-5-chloro-2-fluorophenylacetyl]-(4S)-[1-(4,4-difluoro)piperidinyl]-(2S)-pyrrolidinyl]-5-thiazolyl]propionic acid] | 0.72 nM | 430 µg/mL | 380 µg/mL
3 | Cn1cc(C(=O)Nc2cc(F)c(CC(=O)N3C[C@@H](N4CCN(CC(F)(F)F)CC4)C[C@H]3c3ncc(CCC(=O)O)s3)cc2Cl)c2ccccc21 [Example 79, 3-[2-[1-[5-Chloro-2-fluoro-4-(1-methyl-3-indolylcarbonylamino)phenylacetyl]-(4S)-[1-(4-(2,2,2-trifluoro)ethyl)piperazinyl]-(2S)-pyrrolidinyl]-5-thiazolyl]propionic acid] | 1.5 nM | 250 µg/mL | 670 µg/mL
4 | O=C(O)CCc1cnc([C@@H]2C[C@H](N3CCCCC3)CN2C(=O)Cc2cc(Cl)c(NC(=O)c3csc4ccccc34)cc2F)s1 [Example 47, 3-[2-[1-[4-[(3-Benzo[b]thienylcarbonyl)amino]-5-chloro-2-fluorophenylacetyl]-(4S)-(1-piperidinyl)-(2S)-pyrrolidinyl]-5-thiazolyl]propionic acid] | 0.93 nM | >2000 µg/mL | 510 µg/mL
5 | Cn1cc(C(=O)Nc2cc(Cl)c(CC(=O)N3CCC[C@H]3c3ncc(CCC(=O)O)s3)cc2Cl)c2ccccc21 [Example 26, 3-[2-[1-[2,5-Dichloro-4-(1-methyl-3-indolylcarbonylamino)phenylacetyl]-(2S)-pyrrolidinyl]-5-thiazolyl]propionic acid] | 2.5 nM | 4 µg/mL | 660 µg/mL
6 | C[C@@H]1CN([C@H]2C[C@@H](c3ncc(CCC(=O)O)s3)N(C(=O)Cc3cc(Cl)c(NC(=O)c4cn(C)c5ccccc45)cc3Cl)C2)C[C@H](C)O1 [Example 86, 3-[2-[1-[2,5-Dichloro-4-(1-methyl-3-indolylcarbonylamino)phenylacetyl]-(4S)-[4-(cis-2,6-dimethyl)morpholinyl]-(2S)-pyrrolidinyl]-5-thiazolyl]propionic acid] | 1 nM | 1200 µg/mL | 1400 µg/mL
7 | COC1CN([C@H]2C[C@@H](c3ncc(CCC(=O)O)s3)N(C(=O)Cc3cc(Cl)c(NC(=O)c4cn(C)c5ccccc45)cc3Cl)C2)C1 [Example 64, 3-[2-[1-[2,5-Dichloro-4-(1-methyl-3-indolylcarbonylamino)phenylacetyl]-(4S)-[1-(3-methoxy)-azetidinyl]-(2S)-pyrrolidinyl]-5-thiazolyl]propionic acid] | 3.8 nM | 1000 µg/mL | 1000 µg/mL
8 | CO[C@@H]1C[C@@H](c2ncc(CCC(=O)O)s2)N(C(=O)Cc2cc(Cl)c(NC(=O)c3csc4ccccc34)cc2F)C1 [Example 25, 3-[2-[1-[4-[(3-Benzo[b]thienylcarbonyl)amino]-5-chloro-2-fluorophenylacetyl]-(4R)-methoxy-(2S)-pyrrolidinyl]-5-thiazolyl]propionic acid] | 0.84 nM | 7 µg/mL | 330 µg/mL
9 | O=C(O)CCc1cnc([C@@H]2C[C@H](N3CCC(F)(F)CC3)CN2C(=O)Cc2cc(Cl)c(NC(=O)c3csc4ccccc34)cc2Cl)s1 [Example 76] | 0.79 nM | 110 µg/mL | 83 µg/mL
10 | CCOC1CN([C@H]2C[C@@H](c3ncc(CCC(=O)O)s3)N(C(=O)Cc3cc(Cl)c(NC(=O)c4csc5ccccc45)cc3Cl)C2)C1 [Example 72, 3-[2-[1-[4-(3-Benzo[b]thiophenylcarbonylamino)-2,5-dichlorophenylacetyl]-(4S)-1-(3-ethoxy)azetidinyl-(2S)-pyrrolidinyl]-5-thiazolyl]propionic acid] | 0.68 nM | 960 µg/mL | 960 µg/mL
11 | O=C(O)CCc1cnc([C@@H]2C[C@H](N3CCC(F)(F)CC3)CN2C(=O)Cc2cc(Cl)c(NC(=O)c3coc4ccccc34)cc2Cl)s1 [Example 78, 3-[2-[1-[4-(3-Benzo[b]furanylcarbonylamino)-2,5-dichlorophenylacetyl]-(4S)-[1-(4,4-difluoro)piperidinyl]-(2S)-pyrrolidinyl]-5-thiazolyl]propionic acid] | 1.2 nM | 260 µg/mL | 230 µg/mL
12 | CO[C@H]1C[C@@H](c2ncc(CCC(=O)O)s2)N(C(=O)Cc2cc(Cl)c(Nc3nc4cc(F)ccc4s3)cc2F)C1 [Example 113, 3-[2-[1-[4-(5-Fluoro-2-benzothiazolyl)amino-5-chloro-2-fluorophenyl]acetyl-(4S)-methoxy-(2S)-pyrrolidinyl]-5-thiazolyl]propionic acid] | 5 nM | 180 µg/mL | 770 µg/mL
13 | O=C(O)CCc1cnc([C@@H]2[C@@H](O)CCN2C(=O)Cc2cc(Cl)c(Nc3nc4ccccc4s3)cc2F)s1 [Example 120, 3-[2-[1-[4-(2-Benzothiazolyl)amino-5-chloro-2-fluorophenyl]acetyl-(3S)-hydroxy-(2S)-pyrrolidinyl]-5-thiazolyl]propionic acid] | 9.8 nM | 320 µg/mL | 760 µg/mL
14 | COC1CN([C@H]2C[C@@H](c3ncc(CCC(=O)O)s3)N(C(=O)Cc3cc(Cl)c(NC(=O)c4csc5ccccc45)cc3Cl)C2)C1 [Example 66] | 0.84 nM | 1000 µg/mL | 1000 µg/mL
15 | C[C@@H]1CN([C@H]2C[C@@H](c3ncc(CCC(=O)O)s3)N(C(=O)Cc3cc(Cl)c(NC(=O)c4coc5ccccc45)cc3F)C2)C[C@H](C)O1 [Example 89] | 1.3 nM | 1100 µg/mL | 1300 µg/mL
16 | Cn1cc(C(=O)Nc2cc(F)c(CC(=O)N3C[C@@H](F)C[C@H]3c3ncc(CCC(=O)O)s3)cc2Cl)c2ccccc21 [Example 19, 3-[2-[1-[5-Chloro-2-fluoro-4-(1-methyl-3-indolylcarbonyl)aminophenylacetyl]-(4S)-fluoro-(2S)-pyrrolidinyl]-5-thiazolyl]propionic acid] | 0.94 nM |  | 
17 | CCO[C@H]1CCN(C(=O)Cc2cc(Cl)c(NC(=O)c3cn(C)c4ccccc34)cc2Cl)[C@@H]1c1ncc(CCC(=O)O)s1 [Example 92, 3-[2-[1-[[2,5-Dichloro-4-(1-methyl-3-indolylcarbonylamino)phenyl]acetyl]-(3S)-ethoxy-(2S)-pyrrolidinyl]-5-thiazolyl]propionic acid] | 10 nM |  | 
18 | CO[C@H]1C[C@@H](c2ncc(CCC(=O)O)s2)N(C(=O)Cc2cc(Cl)c(NC(=O)c3csc4ccccc34)cc2Cl)C1 [Example 3, 3-[2-[1-[[4-[(3-Benzo[b]thienylcarbonyl)amino]-2,5-dichlorophenyl]acetyl]-(4S)-methoxy-(2S)-pyrrolidinyl]-5-thiazolyl]propionic acid] | 0.58 nM |  | 
19 | COc1ccc(F)cc1Nc1nc2ccc(CC(=O)N3C[C@@H](OC)C[C@H]3c3ncc(CCC(=O)O)o3)c(F)c2o1 [Example 16, 3-[2-[1-[[7-Fluoro-2-(5-fluoro-2-methoxyphenylamino)-1,3-benzoxazol-6-yl]acetyl]-(4S)-methoxy-(2S)-pyrrolidinyl]-5-oxazolyl]propionic acid] | 22 nM |  | 
20 | CO[C@H]1C[C@@H](c2ncc(CCC(=O)O)s2)N(C(=O)Cc2ccc(Nc3nc4c(Cl)cccc4s3)c(Cl)c2)C1 [Example 114, 3-[2-[1-[4-(4-Chloro-2-benzothiazolyl)amino-3-chlorophenyl]acetyl-(4S)-methoxy-(2S)-pyrrolidinyl]-5-thiazolyl]propionic acid] | 6.9 nM |  | 
21 | O=C(O)CCc1cnc([C@@H]2CCCN2C(=O)Cc2cc(Cl)c(NC(=O)c3csc4ccccc34)cc2Cl)s1 [Example 28, 3-[2-[1-[[4-[(3-Benzo[b]thienylcarbonyl)amino]-2,5-dichlorophenyl]acetyl]-(2S)-pyrrolidinyl]-5-thiazolyl]propionic acid] | 0.86 nM |  | 
22 | CCO[C@H]1CCN(C(=O)Cc2cc(Cl)c(NC(=O)c3csc4ccccc34)cc2F)[C@@H]1c1ncc(CCC(=O)O)s1 [Example 93] | 2.9 nM |  | 
23 | CO[C@@H]1C[C@@H](c2ncc(CCC(=O)O)s2)N(C(=O)Cc2cc(Cl)c(Nc3nc4ccccc4s3)cc2Cl)C1 [Example 125] | 11 nM |  | 
24 | O=C(O)CCn1nnc([C@@H]2CCCN2C(=O)Cc2cc(Cl)c(NC(=O)c3csc4ccccc34)cc2F)n1 [Example 126, 3-[5-[1-[[4-[(3-Benzo[b]thiophenylcarbonyl)amino]-5-chloro-2-fluorophenyl]acetyl]-(2S)-pyrrolidinyl]-2H-tetrazol-2-yl]propionic acid] | 19 nM |  | 
